Reference: US20210137950A1, “Pharmaceutical Composition for Treating Cerebral Infarction” (Kyoto University, priority 2018, published 2021)

Experiments:
primary cortical neurons [1] = assay: Cell viability test (CCK-8) after oxygen-glucose deprivation (OGD); format: cell-based, rat; conditions: for neuronal viability after OGD: 2 hours OGD + 22 hours recovery, vehicle (DMSO) 18.1±1.9%, p<0.001, mean±SE
Method: (§1) Cortical neuronal cultures were prepared from 17-day-old Sprague Dawley rat embryos (Shimizu Laboratory Supplies) using methods described earlier (Maki T, et al, Annals of Clinical and Translational Neurology, 2014 August; 1(8):519-33). Briefly, cortices were dissected and dissociated. Cells were plated on dishes coated with poly-D-lysine in Dulbecco's modified Eagle's medium (DMEM) containing 5% heat-inactivated fetal bovine serum and 1% penicillin/streptomycin at a density of 200,000-250,000 cells/cm^2. At 24-hour after seeding, the medium was changed to Neurobasal (NB) medium containing 0.5 mM glutamine, 1% penicillin/streptomycin and 2% B27 supplement. Cultured neurons were used for experiments 14 days after seeding.
(§2) The medium was replaced with DMEM with no glucose. Then, the cells were placed into the sealed Anaero container with an Anaero Pack (Mitsubishi Gas Chemical Company) for 1.5-2 hours. Following oxygen glucose deprivation, cells were switched to the normal medium and returned to a normoxic 5% CO2 incubator.
Cell viability was assessed by Cell Counting Kit-8 (CCK-8) assay (Dojindo Laboratories). The CCK-8 assay is based on the conversion of a water-soluble tetrazolium salt, 2-(2-methoxy-4-nitrophenyl)-3-(4-nitrophenyl)-5-(2,4-disulfophenyl)-2H-tetrazolium, monosodium salt (WST-8), to a water-soluble formazan dye upon reduction by dehydrogenases in the presence of an electron carrier. The cells were incubated with 10% CCK-8 solution for 1-2 hour at 37° C. Then the absorbance of the culture medium was measured with a microplate reader at a test wavelength of 450 nm and a reference wavelength of 630 nm.
To assess protective effects of KUS121 on neurons in ischemic conditions, cell viability tests were performed after oxygen-glucose deprivation (OGD) in both the presence and the absence of KUS121 (FIG. 1, top). OGD was performed in rat cortical primary neuronal cultures for 2 hours with subsequent recovery at 21% 02 and glucose-containing media for further 22 hours. Control neurons were kept at 21% 02 in glucose-containing media for 24 hours. […]

primary cortical neurons [2] = assay: MAP2 immunocytochemistry after OGD; format: cell-based, rat; conditions: 100 μM KUS, vehicle (DMSO) 0.87±0.13%, p<0.05, mean±SE
Method: as §1, §2
The cells were washed twice with phosphate buffered saline (PBS), followed by 4% paraformaldehyde (PFA) for 15 minutes. After being further washed twice with PBS, they were incubated with PBS/0.1% Tween (10 min) and blocked with 3% BSA/PBS (1 hour at room temperature). […]

primary cortical neurons [3] = assay: ATP assay (luciferase-based) after OGD; format: cell-based, rat
Method: as §1
The medium was replaced with DMEM with no glucose. Then, the cells were placed into the sealed Anaero container with an Anaero Pack (Mitsubishi Gas Chemical Company) for 1.5-2 hours. […]
ATP levels in cell lysates were measured with luciferase chemiluminescence-based ATP assay reagent for cells (Toyo Ink) in accordance with the manufacturer's protocol. […] After incubating for 5 minutes at room temperature, luminescence of an aliquot of the solution was measured in a luminometer.
Cellular ATP levels were measured by the luciferase-based assay after 1.5 hour OGD. […]

[4] = test system: C/EBP-homologous protein (CHOP); assay: Western blot of CHOP expression after tunicamycin treatment (ER stress); format: cell-based, rat; conditions: 0.25 μg/mL tunicamycin for 6 hours
Method: as §1
(§3) Cells were collected and lysed in RIPA buffer (20 mM HEPES-KOH pH 7.4, 150 mM NaCl, 2 mM EDTA, 1% Nonidet-P40, 1% sodium deoxycholate) containing 10% 2-mercaptoethanol (Nacalai tesque) and 1% protease inhibitor (Nacalai tesque). Dissected brain samples were homogenized in the RIPA buffer with 2-mercaptomethanol and protease inhibitor. Samples were sonicated and centrifuged at 4° C., 15,000 rpm for 15 minutes, and the supernatants were collected. Proteins (15-20 μg per lane) were loaded, and were separated by 5-20% SDS-PAGE and transferred to polyvinylidene fluoride membranes (Millipore). […]

C57BL/6 mice [5] = assay: Accelerating rotarod test after transient focal cerebral ischemia (distal MCAO with hypoxia); format: in vivo; conditions: KUS121 immediately after occlusion (100 mg/kg intravenously and 50 mg/kg intraperitoneally), 24 hours after occlusion, vehicle (5% Cremophor) 134.5±18.4, p<0.05, mean±SE
Method: (§4) Adult male C57BL/6 (C57BL/6NJcl) and CB-17 (CB-17/lcr-+/+Jcl) mice (6-7 weeks old) were purchased from Shimizu Laboratory supplies and Clea Japan, respectively. Animals were allowed access to food and water ad libitum.
(§5) In C57BL/6 mice, distal MCAO with hypoxia was performed as previously described with some modifications (Doyle K P, Fathali N, Siddiqui M R, et al. Distal hypoxic stroke: a new mouse model of stroke with high throughput, low variability and a quantifiable functional deficit. Journal of Neuroscience Methods, 2012 May 30; 207(1):31-40). Mice were placed in a large chamber containing 10% oxygen and 90% nitrogen after the occlusion of the distal MCA by a nylon suture. After 30 minutes of hypoxia, mice were returned to normoxic condition with removal of the nylon suture. Sham surgery were identical to the stroke surgery, except for the occlusion of the distal MCA.
Twenty-four hours after ischemia, mice were placed on an accelerating rotarod apparatus, in which the speed was accelerated from 0 to 40 rpm over 4 minutes. The time for which mice can remain on the rotating cylinder was measured. Three trials were performed and the best latency to fall was used. […]

C57BL/6 mice [6] = assay: Infarction volume after transient focal cerebral ischemia (distal MCAO with hypoxia); format: in vivo; conditions: KUS121 immediately after occlusion (100 mg/kg intravenously and 50 mg/kg intraperitoneally), 24 hours after ischemia, vehicle (5% Cremophor) 8.8±0.63%, p<0.05, mean±SE
Method: as §4, §5
Mice were deeply anesthetized and perfused transcardially with PBS and 4% PFA 24 hours after ischemia. The brains were extracted and post-fixed in 4% PFA for 48 hours. They were further cryoprotected in 20% sucrose until they sunk to the bottom of the vial. […] The area of the ipsilateral hemisphere and the area of the infarct on each section were measured using NIH imageJ software. […]

CB-17 mice = assay: Infarction volume after transient focal cerebral ischemia (distal MCAO); format: in vivo; conditions: KUS121 immediately before the ischemia, vehicle (5% Cremophor) 11.8±0.60%, p<0.05, mean±SE
Method: as §4
In CB-17 mice, distal middle cerebral artery occlusion (distal MCAO) was performed as previously described with minor modifications (Kasahara Y, Ihara M, Nakagomi T, et al. A highly reproducible model of cerebral ischemia/reperfusion with extended survival in CB-17 mice. Neuroscience Research, 2013 July; 76(3):163-8). In brief, general anesthesia was induced and maintained by inhalation of 4% and 1.5% isoflurane (Pfizer), respectively. Mice were placed in a lateral position, and a skin incision was made between the left eyeball and the left external auditory canal. The left salivary gland and a part of the temporalis muscle were resected to allow visualization of the middle cerebral artery (MCA) through the cranial bone. A burr hole was made in the cranial bone. […] During surgery, rectal temperature was monitored and controlled at 36.0-37.2° C. by a feedback-regulated heating pad.
Mice were deeply anesthetized and perfused transcardially with PBS and 4% PFA 24 hours after ischemia. […] The area of the ipsilateral hemisphere and the area of the infarct on each section were measured using NIH imageJ software. […]

NeuN = assay: Western blotting of NeuN in cerebral cortex after transient focal cerebral ischemia; format: in vivo; conditions: CB-17 mice, KUS121 before ischemia
Method: as §3, with “(Millipore). The following primary antibodies were used: β-actin (1:5000, Sigma Aldrich, A5441), CHOP (1:1000, Cell Signaling Technology, L63F7), NeuN (1:2000, Merck Millipore, ABN78), VCP (1:500, ABGENT, AP6920b). HRP-labeled secondary antibodies (Santa Cruz Biotechnology) were used for visualization by enhanced chemiluminescence (Nacalai tesque).” for “(Millipore).”
In CB-17 mice, distal middle cerebral artery occlusion (distal MCAO) was performed as previously described with minor modifications (Kasahara Y, Ihara M, Nakagomi T, et al. A highly reproducible model of cerebral ischemia/reperfusion with extended survival in CB-17 mice. Neuroscience Research, 2013 July; 76(3):163-8). […] During surgery, rectal temperature was monitored and controlled at 36.0-37.2° C. by a feedback-regulated heating pad. […]

Cc1cc(F)ccc1-c1ccc(N=Nc2cc(S(=O)(=O)[O-])c3ccccc3c2N)cn1.[Na+] [KUS121, 4-amino-3-[6-(4-fluoro-2-methylphenyl)pyridine-3-ylazo]naphthalene-1-sulfonic acid sodium salt]
neuronal viability after OGD (primary cortical neurons [1]; 100 μM KUS throughout): 43.5±3.1% | neuronal viability after OGD (primary cortical neurons [1]; 200 μM KUS throughout): 42.4±3.7% | neuronal viability without OGD (primary cortical neurons [1]; without OGD): no effect | MAP2-positive area (primary cortical neurons [2]): 2.64±0.41% | ATP levels (primary cortical neurons [3]; 100 μM KUS, after 1.5 hour OGD, vehicle (DMSO) 14.3±1.1%, p<0.001, mean±SE): 28.0±2.3% | ATP levels without OGD (primary cortical neurons [3]; without OGD): no effect | expression of CHOP [4]: suppressed | rotarod retention time (C57BL/6 mice [5]): 201.0 ± 21.8 s | infarction volumes (C57BL/6 mice [6]): 4.7±1.70% | infarction volumes (CB-17 mice): 5.74±1.64% | expression of NeuN in cerebral cortex (NeuN): preserved
